These are literature values, as cited in PMC3350394, “Kinetic analysis and test-retest variability of the radioligand [^11C](R)-PK11195 binding to TSPO in the human brain - a PET study in control subjects” (EJNMMI Research, 2012).

Details of this series: method as in PMID 19050880, PMID 16039131. The conditions noted are these: cited from earlier work.

Usually log P stands for the decadic logarithm of the partition coefficient of the neutral form, usually between octanol and water. With `CC[C@@H](C)N([11CH3])C(=O)c1cc2ccccc2c(-c2ccccc2Cl)n1` [[^11C](R)-PK11195], the “log P” value is reported as 1.4 to 3.4.
